Experimental data from patent US11082386B2, “2′-fluoro-6′-methylene carbocyclic nucleosides and methods of treating viral infections” (UNIVERSITY OF GEORGIA RESEARCH FOUNDATION, INC., priority 2009, dated 2021).
pEC50, pIC50: −log10 of the molar value. Entries after “also recorded” stand apart in the source; their conditions may differ. Like-named read-outs stand apart in the source and are kept apart here.

Columns and labels:
[1] = tested on: HBV genotype C entecavir resistant clone (L180M+M204V+S202G); assay: anti-HBV activity against entecavir resistant clone in Huh7 cells; assay type: cell-based, Hepatitis B virus; conditions: for pIC50: HBV genotype C entecavir resistant clone; for pIC50 / antiviral potency against the entecavir mutant: Huh7 cells; for pEC50: Hepatitis B virus, Huh-7
Description: (§1) A mono-phosphate prodrug can be useful not only to bypass the rate limiting initial phosphorylation step by the nucleoside kinase, thereby to increase the antiviral potency, but also it may potentially target the liver. Therefore, a phosphoramidite, compound 15P/18P was also synthesized.

[2] = tested on: lamivudine-resistant mutants including rtM204V/I±rtL180M; assay: activity against lamivudine-resistant mutants relative to wild type; assay type: cell-based, Hepatitis B virus
Experimental: (§2) In view of the significance of lamivudine- and adefovir-resistant mutations in the clinical application of anti-HBV treatment, the synthesized nucleoside 15/18 was tested against HBV WT as well as lamivudine- and adefovir-resistant mutants.

HBV mutant rtM204I = assay: intracellular HBV DNA replication assay, rtM204I; assay type: cell-based; conditions: Hepatitis B virus
Experimental: as §2

wild-type HBV [3] = assay: intracellular HBV DNA replication assay, wild type; assay type: cell-based, Hepatitis B virus
Experimental: as §2

HBV mutant rtM204V = assay: intracellular HBV DNA replication assay, rtM204V; assay type: cell-based; conditions: Hepatitis B virus
Experimental: as §2

HepG2 cells = assay: mitochondrial toxicity by lactic dehydrogenase release; assay type: cell-based; conditions: human
HBV mutant rtL180M = assay: intracellular HBV DNA replication assay, rtL180M; assay type: cell-based, Hepatitis B virus; conditions: for pEC50 / EC90: Hepatitis B virus
Experimental: as §2

[4] = biological target: T1, adenosine deaminase from calf thymus (Bos taurus, UniProt P56658); assay: deamination study with adenosine deaminase; assay type: in vitro ADME
T1 construct: adenosine deaminase from calf thymus; from tissue; host or cells: calf thymus
T1 sequence (P56658 1-363): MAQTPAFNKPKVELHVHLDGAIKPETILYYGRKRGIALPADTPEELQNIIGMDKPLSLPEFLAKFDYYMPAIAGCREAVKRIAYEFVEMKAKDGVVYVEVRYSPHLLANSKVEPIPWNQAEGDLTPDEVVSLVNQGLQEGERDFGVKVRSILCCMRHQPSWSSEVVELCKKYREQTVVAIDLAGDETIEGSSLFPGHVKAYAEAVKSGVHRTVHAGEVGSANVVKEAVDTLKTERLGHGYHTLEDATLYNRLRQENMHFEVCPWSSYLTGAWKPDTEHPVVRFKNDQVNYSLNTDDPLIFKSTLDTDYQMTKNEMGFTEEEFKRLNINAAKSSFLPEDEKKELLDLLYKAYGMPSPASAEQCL

[5] = tested on: HBV adefovir mutant rtN236T; assay: intracellular HBV DNA replication assay, adefovir mutant; assay type: cell-based, Hepatitis B virus
Experimental: as §2

[6] = tested on: HBV double mutant rtL180M/rtM204V; assay: intracellular HBV DNA replication assay, double mutant; assay type: cell-based, Hepatitis B virus
Experimental: as §2

[7] = tested on: HBV rtA181T and rtN236T mutations; conditions: cited from earlier work
wild-type HBV [8] = assay: in vivo study in chimeric mice, wild-type HBV
Experimental: (§3) The FMCA monophosphate prodrug compound (15P/18P) was also tested in chimeric mice for activity.

[9] = tested on: entecavir resistant HBV mutant (L180M+M204V+S202G); assay: in vivo study in chimeric mice, entecavir resistant HBV mutant; conditions: for viral load down / activity: mice, entecavir resistant HBV mutant (L180M+M204V+S202G); for antiviral activity: preliminary, chimeric mice infected with lamivudine-adeforvir-entecavir triple mutant
Experimental: as §3

[10] = cytotoxicity / cellular toxicity (CC50); conditions: Table 2
Experimental: Drug susceptibility assays were performed as previously described. Cytotoxicity assays in PBM, CEM and Vero cells were conducted as previously described. […] These compounds were tested in a standard HBV assay in the laboratory of Dr. Brent Korba.

HBV = assay: standard HBV assay (HBV Assay Results table); assay type: cell-based, Hepatitis B virus
Experimental: Drug susceptibility assays were performed as previously described. […]

WT HBV = assay: anti-HBV activity against wild type in Huh7 cells (Table 2); assay type: cell-based, Hepatitis B virus
Description: as §1

[11] = tested on: lamivudine-resistant mutants including rtM204V/I±rtL180M; conditions: literature reference 50; cited from earlier work
[12] = rtN236T, compared with adefovir

Compound: (+)-(1R,2R,3R,5R)-3-(6-amino-9H-9-purinyl)-2-fluoro-5-(hydroxymethyl)-4-methylenecyclopentan-1-ol [Compound 15/18]
- pIC50 [1]: 7.27

Compound: C=C1[C@@H](n2cnc3c(N)ncnc32)[C@@H](F)[C@H](O)[C@H]1CO [Compound 15/18, (+)-(1R,2R,3R,5R)-3-(6-amino-9H-9-purinyl)-2-fluoro-5-(hydroxymethyl)-4-methylenecyclopentan-1-ol]
- cross-resistance to tested lamivudine-resistant mutants [2]: not cross-resistant
- fold increase against lamivudine-resistant mutants ([2]; rtM204V/I±rtL180M versus wild type): 1.0-1.2 fold
- pEC50 (HBV mutant rtM204I): 6.00
- EC90 (wild-type HBV [3]; Hepatitis B virus): 4.5 µM
- pEC50 (wild-type HBV [3]; Hepatitis B virus, HBV-WT, inhibition of 50% of HBV DNA): 5.82
- fold more potent than adefovir in EC90 (wild-type HBV [3]; wild-type HBV): 1.5 fold
- fold less potent than lamivudine (wild-type HBV [3]; wild-type HBV, EC50): 7 fold
- pEC50 [1]: 6.17
- antiviral potency against the entecavir mutant [1]: still maintain the antiviral potency
- pEC50 (HBV mutant rtM204V): 5.74
- mitochondrial toxicity (lactic dehydrogenase release) (HepG2 cells): did not exhibit any significant toxicity up to 100 μM
- pEC50 (HBV mutant rtL180M): 5.68
- EC90 (HBV mutant rtL180M): 5.1 µM
- fold increased antiviral activity in EC90 versus lamivudine (HBV mutant rtL180M; rtL180M): 4.3 fold
- stability against adenosine deaminase [4]: completely stable
- pEC50 ([5]; Hepatitis B virus): 5.77
- EC90 ([5]; Hepatitis B virus): 4.6 µM
- fold enhanced EC50 value [5, 12]: 4.5 fold
- fold more favorable EC90 value [5, 12]: 7.8 fold
- pEC50 ([6]; Hepatitis B virus): 5.66
- EC90 ([6]; Hepatitis B virus): 5.5 µM

Compound: Nc1ncnc2c1ncn2CCOCP(=O)(O)O [adefovir, reference compound]
- increase in median effective concentration [7]: two-fold to nine-fold
- EC90 (wild-type HBV [3]; HBV-WT, inhibition of 90% of HBV DNA, read-out: EC90): 7.1 µM
- pEC50 ([6]; double mutant rtL180M/rtM204V, read-out: EC50): 5.66
- EC90 ([6]; double mutant rtL180M/rtM204V, read-out: EC90): 8.5 µM

Compound: C=C1C(COP(=O)(N[C@@H](C)C(=O)OC)Oc2ccccc2)C(O)C(F)C1n1cnc2c(N)ncnc21 (stereo partly shown) [Compound 15P/18P]
- viral load down (wild-type HBV [8]): 2 log
- viral load down / activity [9]: 1 log
- antiviral activity [9]: exhibited antiviral activity
- cellular toxicity in comparison to parent 15/18 [10]: without significant increase of cellular toxicity
- pIC50 [1]: 7.30
- antiviral potency against the entecavir mutant [1]: still maintain the antiviral potency
- times more active than the compound where R1 and R1a are H (HBV; prodrug versus parent 15/18): more than 10 times
- fold enhancement of anti-HBV potency in EC50 versus parent 15/18 (WT HBV): 7 fold
- fold enhancement of anti-HBV potency in EC90 versus parent 15/18 (WT HBV): 13 fold

Compound: Nc1ccn([C@@H]2CS[C@H](CO)O2)c(=O)n1 [lamivudine, reference compound]
- mitochondrial toxicity (lactic dehydrogenase release) (HepG2 cells): did not exhibit any significant toxicity up to 100 μM
- pEC50 (HBV mutant rtL180M): 5.82
- EC90 (HBV mutant rtL180M): 22 µM
- pEC50 (HBV; Hepatitis B virus, read-out: Control: 3TC EC50): 2.62

Compound: C=C1[C@H](CO)[C@@H](O)C[C@@H]1n1cnc2c(=O)[nH]c(N)nc21 [entecavir]
- viral load down / activity ([9]; listed as ETV): inactive; also recorded: not active
- antiviral activity [9]: did not
- fold loss of activity against lamivudine-resistant mutants [11]: 8 fold
- pEC50 [1]: 5.92
